For data set [1], the system named is FRET substrate (SL1). Kind of data set: Real time FRET measurement of ribozyme cleavage activity (HHR1 with substrate SL1). Type of data set: biochemical. The following applies: HHR1 4 nM, 37° C.; SL1 vs S1 (conventional gel/autoradiography method). The source says: As the increase in fluorescence is directly correlated to the cleavage rate, the system is suitable for a sensitive, non-radioactive and fast analysis of ribozyme activities. A FRET substrate (SLI) was constructed on the basis of a known HHR/substrate complex (M. Fedor, O. C. Uhlenbeck, Proc. Natl. Acad. Sci. USA (1990), 87, 1668-1672) and was used for a time-dependent measurement of ribozyme activity (HHR1). […] The Michaelis-Menten parameter of HHR can be obtained in a single experiment by measurement of the cleavage-caused rise in fluorescence at different substrate concentrations.
In order to find out whether the method is suitable for the fast characterization of ribozymes, the activity was measured in parallel batches while various physico-chemical parameters were modified.
FIGS. 3b-d show the dependency of the reaction rate on the pH value, the temperature and the Mg^2+ concentration. […]
Characterization of the cleavage activity at 4 nM HHR1 and 200 or 300 nM SL1. (a) Time-dependent course of cleavage with the reciprocally exponential regression curve (only 1% of all data points measured are depicted). […] (0.0134 nM^−1 min^−1) were also determined.
The real time measurements of the rise in fluorescence caused by the ribozyme were taken in 50 μl reaction batches. The signal measured comprises both the chemical step of cleavage and the release of the cleavage products. […]

Data set [2] relates to substrate RNA SL1. The experiment in a line: Real time measurement of fluorescence at cleavage of SL1 by HHR1 transcribed in vitro with T7-RNA polymerase. It counts as biochemical. As to conditions: 900 nM SL1, 37° C., 535 nm, T7 in-vitro transcription.
Method: A typical 50 μl reaction batch contained: 40 mM tris HCl, pH 8.0, 50 mM NaCl, 2 mM spermidin, 5 mM dithiothreitol, 5 to 25 mM MgCl2, about 500 nM SL1, 0.2 to 2 μM HHR1-DNA or HHR1mut-DNA, 4mM A/C/G/UTP and 50 units of T7-RNA-polymerase. […] In-vitro transcription was started by the addition of the polymerase, and incubation was carried out at 37° C. while the measurement was taken. • 3. Real Time Measurement of Fluorescence at Cleavage of SL1 by HHR1:
The fluorescence of the transcription batches was measured in an automated manner in an ABI Prism 770 spectrometer (Applied Biosystems, USA), the temperature of which could be adjusted. The spectra in the emission wavelength range of the two dyes (FAM, λmax=518 nm and TAMRA, λmax=582 nm) were recorded in intervals of 7 seconds (excitation energy=488 nm). After an incubation time of 3 hours, the collected data were evaluated by the software contained in the equipment. For a real time control of the individual transcriptions, the fluorescence spectra (range of 500 nm to 660 nm) were projected time-dependently over the spectrum of the reference transcription (with non-functional HHR1mut DNA).

{FAM} = fluorescein (FAM) reporter dye; {TAMRA} = TAMRA quencher dye

Regarding “5′-FAM-ACG AGU CAG GAU U-TAMRA-3′ (ACGAGUCAGGAUU; RNA, 5' {FAM}, 3' {TAMRA}, backbone not given here) [SL1, 5′-FAM and 3′-TAMRA labeled substrate RNA (FRET substrate)]”, in data set [1], the “Kcat and KM values of FRET substrate compared with 32P labeled substrate S1” value was “in the same order of magnitude”. Turning to “5′-TCT AAT ACG ACT CAC TAT A GGGTCCTCTGATGAGGCCGTTAGGCCGAAACTCGT-3′ [HHR1-DNA]”, the “relative fluorescence ΔRn of the fluorophore / fluorescence signal” value in data set [2] is recorded as “increased with the incubation times”. Still for that read-out and setting: in the case of “5′-TCT AAT ACG ACT CAC TAT A GGGTCCTCTTAGGAGGCCGTTAGGCCAGAACTCGT-3′ [HHR1mut, reference compound]” it was “no influence”.
